Earlier results in patent US20090252834A1, “Compositions comprising glucose anti-metabolites” (priority 2004, published 2009).

How the values were obtained:
[1] = tested on: isolated rat hepatocytes; conditions: cited from earlier work
[2] = high doses; cited from earlier work
[3] = tested on: rodents; conditions: long-term; cited from earlier work
[4] = in contrast with 2-deoxy-D-glucose; cited from earlier work
[5] = tested on: rats; conditions: cited from earlier work
[6] = injected into a rat; cited from earlier work
[7] = tested on: rats; conditions: by injection, in rats; cited from earlier work

Question: With `OC[C@H]1O[C@H](CO)[C@@H](O)[C@@H]1O` [2,5-Anhydro-D-mannitol, 2,5-anhydro-D-mannitol] as the compound, how does the “glucose formation and utilization” value [1] read?
Answer: interfere in glucose formation and utilization

Question: What does the source list for `O=CC[C@@H](O)[C@H](O)[C@H](O)CO` [2-deoxy-D-glucose]?
Answer: side effects and toxicity [2]: significant untoward side effects and toxicity have been observed; metabolic hallmarks of caloric restriction (reduced body temperature, weight loss, lower fasting insulin levels) [3]: can mimic some of the major metabolic hallmarks of caloric restriction

Question: For `CO[C@@H]([C@H](O)[C@H](O)CO)[C@@H](O)C=O` [3-O-methylglucose], which “metabolism of the glucose analog” value [4] is on record?
Answer: not metabolized

Question: What about the “responses to administration compared with 2-deoxyglucose” value [5] of the same compound?
Answer: about seven times weaker

Question: Which results are given for `O=C[C@H](O)[C@@H](O)[C@H](O)[C@H](S)CO` [5-Thioglucose, 5-thio-D-glucose]?
Answer: 5-thioglucose excreted unchanged in urine [6]: 97%; LD50 [7]: 14000 mg/kg
